Reference: the supplement of paper PMC10307832

Legend:
Experiment in all cases: relative viability (nuclei count vs DMSO), 5 days (fraction); higher = more cells survive
201T = test system: 201T
Outline: (§1)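 Lung cancer cell lines in 1536-well plates got either a single drug or a fixed anchor-drug dose together with five library-drug doses (not always all listed) in √10 steps, by pin tool, on the day after seeding. Nuclei were counted after 5 days, and relative viability is the treated-to-vehicle ratio of nuclei counts. Values are medians of duplicate plates.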

BEN = test system: BEN
Outline: as §1

LU99A = test system: LU99A
Outline: as §1

LCLC-97TM1 = test system: LCLC-97TM1
Outline: as §1

NCI-H1975 = test system: NCI-H1975
Outline: as §1

NCI-H1395 = test system: NCI-H1395
Outline: as §1

H3255 = test system: H3255
Outline: as §1

NCI-H358 = test system: NCI-H358
Outline: as §1

COR-L 105 = test system: COR-L 105
Outline: as §1

EPLC-272H = test system: EPLC-272H
Outline: as §1

NCI-H2087 = test system: NCI-H2087
Outline: as §1

PC-3 [JPC-3] = test system: PC-3 [JPC-3]
Outline: as §1

HCC-827 = test system: HCC-827
Outline: as §1

SW 1573 = test system: SW 1573
Outline: as §1

EKVX = test system: EKVX
Outline: as §1

NCI-H647 = test system: NCI-H647
Outline: as §1

HCC-44 = test system: HCC-44
Outline: as §1

HOP-62 = test system: HOP-62
Outline: as §1

LOU-NH91 = test system: LOU-NH91
Outline: as §1

NCI-H1666 = test system: NCI-H1666
Outline: as §1

NCI-H2085 = test system: NCI-H2085
Outline: as §1

NCI-H1437 = test system: NCI-H1437
Outline: as §1

CC1(C)CCC(c2ccc(Cl)cc2)=C(CN2CCN(c3ccc(C(=O)NS(=O)(=O)c4ccc(N[C@H](CCN5CCOCC5)CSc5ccccc5)c(S(=O)(=O)C(F)(F)F)c4)cc3)CC2)C1 [Navitoclax] + CS(=O)(=O)CCNCc1ccc(-c2ccc3ncnc(Nc4ccc(OCc5cccc(F)c5)c(Cl)c4)c3c2)o1 [Lapatinib] (partner 2 µM)
relative viability (201T; first compound 0.005 µM): 1.06
relative viability (201T; first compound 0.01581 µM): 1.12
relative viability (201T; first compound 0.05 µM): 0.992
relative viability (201T; first compound 0.1581 µM): 1.03
relative viability (201T; first compound 0.5 µM): 1.06
relative viability (BEN; first compound 0.005 µM): 0.718
relative viability (BEN; first compound 0.01581 µM): 0.596
relative viability (BEN; first compound 0.05 µM): 0.772
relative viability (BEN; first compound 0.1581 µM): 0.714
relative viability (BEN; first compound 0.5 µM): 0.647
relative viability (LU99A; first compound 0.005 µM): 0.985
relative viability (LU99A; first compound 0.01581 µM): 1.19
relative viability (LU99A; first compound 0.05 µM): 0.977
relative viability (LU99A; first compound 0.1581 µM): 1.04
relative viability (LU99A; first compound 0.5 µM): 1.07
relative viability (LCLC-97TM1; first compound 0.005 µM): 0.884
relative viability (LCLC-97TM1; first compound 0.01581 µM): 1.21
relative viability (LCLC-97TM1; first compound 0.05 µM): 0.865
relative viability (LCLC-97TM1; first compound 0.1581 µM): 0.856
relative viability (LCLC-97TM1; first compound 0.5 µM): 1.17
relative viability (NCI-H1975; first compound 0.005 µM): 0.859
relative viability (NCI-H1975; first compound 0.01581 µM): 1.02
relative viability (NCI-H1975; first compound 0.05 µM): 1.23
relative viability (NCI-H1975; first compound 0.1581 µM): 0.8
relative viability (NCI-H1975; first compound 0.5 µM): 0.893
relative viability (NCI-H1395; first compound 0.005 µM): 0.831
relative viability (NCI-H1395; first compound 0.01581 µM): 1.18
relative viability (NCI-H1395; first compound 0.05 µM): 1.13
relative viability (NCI-H1395; first compound 0.1581 µM): 1.17
relative viability (NCI-H1395; first compound 0.5 µM): 1.06
relative viability (H3255; first compound 0.005 µM): 0.271
relative viability (H3255; first compound 0.01581 µM): 0.258
relative viability (H3255; first compound 0.05 µM): 0.226
relative viability (H3255; first compound 0.1581 µM): 0.25
relative viability (H3255; first compound 0.5 µM): 0.19
relative viability (NCI-H358; first compound 0.005 µM): 0.481
relative viability (NCI-H358; first compound 0.01581 µM): 0.601
relative viability (NCI-H358; first compound 0.05 µM): 0.397
relative viability (NCI-H358; first compound 0.1581 µM): 0.482
relative viability (NCI-H358; first compound 0.5 µM): 0.583
relative viability (COR-L 105; first compound 0.005 µM): 0.335
relative viability (COR-L 105; first compound 0.01581 µM): 0.407
relative viability (COR-L 105; first compound 0.05 µM): 0.307
relative viability (COR-L 105; first compound 0.1581 µM): 0.282
relative viability (COR-L 105; first compound 0.5 µM): 0.333
relative viability (EPLC-272H; first compound 0.005 µM): 0.904
relative viability (EPLC-272H; first compound 0.1581 µM): 0.906
relative viability (EPLC-272H; first compound 0.5 µM): 0.881
relative viability (NCI-H2087; first compound 0.005 µM): 1.15
relative viability (NCI-H2087; first compound 0.01581 µM): 1.06
relative viability (NCI-H2087; first compound 0.05 µM): 0.837
relative viability (NCI-H2087; first compound 0.1581 µM): 0.925
relative viability (NCI-H2087; first compound 0.5 µM): 1.02
relative viability (PC-3 [JPC-3]; first compound 0.005 µM): 0.403
relative viability (PC-3 [JPC-3]; first compound 0.01581 µM): 0.438
relative viability (PC-3 [JPC-3]; first compound 0.05 µM): 0.441
relative viability (PC-3 [JPC-3]; first compound 0.1581 µM): 0.474
relative viability (PC-3 [JPC-3]; first compound 0.5 µM): 0.487
relative viability (HCC-827; first compound 0.005 µM): 0.199
relative viability (HCC-827; first compound 0.01581 µM): 0.2
relative viability (HCC-827; first compound 0.05 µM): 0.194
relative viability (HCC-827; first compound 0.1581 µM): 0.21
relative viability (HCC-827; first compound 0.5 µM): 0.196
relative viability (SW 1573; first compound 0.005 µM): 1.22
relative viability (SW 1573; first compound 0.01581 µM): 1.08
relative viability (SW 1573; first compound 0.05 µM): 1.01
relative viability (SW 1573; first compound 0.1581 µM): 1.04
relative viability (SW 1573; first compound 0.5 µM): 1.09
relative viability (EKVX; first compound 0.005 µM): 0.233
relative viability (EKVX; first compound 0.01581 µM): 0.21
relative viability (EKVX; first compound 0.05 µM): 0.161
relative viability (EKVX; first compound 0.1581 µM): 0.206
relative viability (EKVX; first compound 0.5 µM): 0.206
relative viability (NCI-H647; first compound 0.005 µM): 0.888
relative viability (NCI-H647; first compound 0.01581 µM): 1.05
relative viability (NCI-H647; first compound 0.05 µM): 1.51
relative viability (NCI-H647; first compound 0.1581 µM): 1.1
relative viability (NCI-H647; first compound 0.5 µM): 0.918
relative viability (HCC-44; first compound 0.005 µM): 0.888
relative viability (HCC-44; first compound 0.01581 µM): 1.03
relative viability (HCC-44; first compound 0.05 µM): 0.996
relative viability (HCC-44; first compound 0.1581 µM): 0.971
relative viability (HCC-44; first compound 0.5 µM): 1.04
relative viability (HOP-62; first compound 0.005 µM): 0.924
relative viability (HOP-62; first compound 0.01581 µM): 1.12
relative viability (HOP-62; first compound 0.05 µM): 0.777
relative viability (HOP-62; first compound 0.1581 µM): 0.947
relative viability (HOP-62; first compound 0.5 µM): 0.972
relative viability (LOU-NH91; first compound 0.005 µM): 0.802
relative viability (LOU-NH91; first compound 0.01581 µM): 0.858
relative viability (LOU-NH91; first compound 0.05 µM): 0.756
relative viability (LOU-NH91; first compound 0.1581 µM): 0.681
relative viability (LOU-NH91; first compound 0.5 µM): 0.549
relative viability (NCI-H1666; first compound 0.005 µM): 0.584
relative viability (NCI-H1666; first compound 0.01581 µM): 0.694
relative viability (NCI-H1666; first compound 0.05 µM): 0.524
relative viability (NCI-H1666; first compound 0.1581 µM): 0.579
relative viability (NCI-H1666; first compound 0.5 µM): 0.425
relative viability (NCI-H2085; first compound 0.005 µM): 0.754
relative viability (NCI-H2085; first compound 0.01581 µM): 0.895
relative viability (NCI-H2085; first compound 0.05 µM): 0.692
relative viability (NCI-H2085; first compound 0.1581 µM): 0.822
relative viability (NCI-H2085; first compound 0.5 µM): 0.814
relative viability (NCI-H1437; first compound 0.005 µM): 0.729
relative viability (NCI-H1437; first compound 0.01581 µM): 0.759
relative viability (NCI-H1437; first compound 0.05 µM): 0.822
relative viability (NCI-H1437; first compound 0.1581 µM): 0.819
relative viability (NCI-H1437; first compound 0.5 µM): 0.831
